In patent US20260234149A1, “FUSED BICYCLIC COMPOUND” (CHIA TAI TIANQING PHARMACEUTICAL GROUP CO., LTD., priority 2022, published 2026):
pIC50: −log10 of the molar value.

How the values were obtained:
MDA-MB-436 cells = assay: Assay on inhibitory activity for MDA-MB-436 cell proliferation (CCK-8); type: cell-based; details: 168 h incubation, CCK-8, absorbance at 450 nm
Description: 1.1 Assay on inhibitory activity for MDA-MB-436 cell proliferation MDA-MB-436 cells in a good growth state were collected into a centrifuge tube, adjusted to a cell density of 2×10^4 cells/mL using a complete medium (DMEM high glucose+[…]+1× insulin-transferrin-selenium (JTS-G)+16 μg/mL reduced glutathione), and seeded in a 96-well plate (100 μL/well), and the plate was incubated overnight in a cell incubator Compounds were added using a pipettor, such that the final concentrations of the compounds were 400 nM-0.02 nM. The wells were set in duplicate, and a control well was set. After 168 h of incubation in the cell incubator, the assay reagent CCK-8 (manufacturer: Dojindo Laboratories, Beijing; 10 μL/well) was added. After 1.5 h of incubation in the cell incubator, the absorbance was measured at 450 nm on a PerkinElmer Envision microplate reader.

PARP1 [1] = molecular target: T1, PARP1 (Homo sapiens, UniProt P09874); assay: Assay on PARP1 protein activity (chemiluminescence assay kit); type: biochemical; details: PARP1 enzyme, 1 h room temperature
T1 construct: purchased BPS 80551
T1 sequence (P09874 whole entry): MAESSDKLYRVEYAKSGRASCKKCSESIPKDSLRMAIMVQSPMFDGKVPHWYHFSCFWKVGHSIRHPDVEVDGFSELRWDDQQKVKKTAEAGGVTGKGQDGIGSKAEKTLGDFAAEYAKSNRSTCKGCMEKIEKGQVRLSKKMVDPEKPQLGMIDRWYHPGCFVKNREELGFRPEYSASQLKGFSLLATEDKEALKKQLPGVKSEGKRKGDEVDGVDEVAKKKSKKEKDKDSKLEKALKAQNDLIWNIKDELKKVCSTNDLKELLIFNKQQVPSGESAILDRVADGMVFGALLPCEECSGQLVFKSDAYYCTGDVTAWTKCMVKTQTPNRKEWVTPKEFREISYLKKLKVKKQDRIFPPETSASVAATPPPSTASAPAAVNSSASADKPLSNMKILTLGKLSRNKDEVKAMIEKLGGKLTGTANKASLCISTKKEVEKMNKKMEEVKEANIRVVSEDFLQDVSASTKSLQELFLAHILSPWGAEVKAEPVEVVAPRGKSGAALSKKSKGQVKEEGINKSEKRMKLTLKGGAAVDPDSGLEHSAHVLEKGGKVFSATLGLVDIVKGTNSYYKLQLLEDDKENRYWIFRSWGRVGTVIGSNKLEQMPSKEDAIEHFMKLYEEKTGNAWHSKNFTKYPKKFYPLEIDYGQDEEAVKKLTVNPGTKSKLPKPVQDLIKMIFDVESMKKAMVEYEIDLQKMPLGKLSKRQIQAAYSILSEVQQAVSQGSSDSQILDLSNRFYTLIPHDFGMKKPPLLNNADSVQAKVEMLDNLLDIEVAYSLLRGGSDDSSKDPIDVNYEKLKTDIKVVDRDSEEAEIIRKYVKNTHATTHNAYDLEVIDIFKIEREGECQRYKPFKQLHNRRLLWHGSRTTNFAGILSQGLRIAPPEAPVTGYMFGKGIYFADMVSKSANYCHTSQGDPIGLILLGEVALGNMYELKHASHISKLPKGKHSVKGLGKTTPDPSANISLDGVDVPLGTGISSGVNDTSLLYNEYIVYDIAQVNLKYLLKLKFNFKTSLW

PARP1 [2] = molecular target: T1, PARP1; assay: PARP1-Tracer activity assay (FP method); type: binding
Description: (§1) The enzyme inhibition activity of the compounds against PARP1/2-Tracer was tested using the FP method. First, 100 nL of inhibitors with a final concentration of 1% DMSO were transferred to a 384-well reaction plate (Corning 4514) using Echo655. Then, 5 μL of PARP1/2 (BPS, Cat #80501/80502) enzyme solution was added to each well, followed by centrifugation at 1000 RPM for 1 min at room temperature, and the reaction was allowed to proceed for 10 min. Subsequently, 5 μL of Tracer (ICE, Cat #001315-009) solution was added to each well, followed by centrifugation at 1000 RPM for 1 min at room temperature, and the reaction was allowed to proceed for 60 min. PARP1/2 and Tracer were prepared in a buffer containing 50 mM Tris (pH 8.0), 10 mM MgCl2, 150 mM NaCl, and 0.001% Triox-100, with final concentrations of 5/10 nM and 2.5 nM, respectively. Finally, the FP signal was read using BMG (PHERAstar FSX), and the IC50 values and nonlinear regression curve fitting were obtained using GraphPad Prism software.

PARP2 = molecular target: T2, PARP2 (Homo sapiens, UniProt Q9UGN5); assay: PARP2-Tracer activity assay (FP method); type: binding
T2 construct: purchased BPS 80502
T2 sequence (Q9UGN5 whole entry): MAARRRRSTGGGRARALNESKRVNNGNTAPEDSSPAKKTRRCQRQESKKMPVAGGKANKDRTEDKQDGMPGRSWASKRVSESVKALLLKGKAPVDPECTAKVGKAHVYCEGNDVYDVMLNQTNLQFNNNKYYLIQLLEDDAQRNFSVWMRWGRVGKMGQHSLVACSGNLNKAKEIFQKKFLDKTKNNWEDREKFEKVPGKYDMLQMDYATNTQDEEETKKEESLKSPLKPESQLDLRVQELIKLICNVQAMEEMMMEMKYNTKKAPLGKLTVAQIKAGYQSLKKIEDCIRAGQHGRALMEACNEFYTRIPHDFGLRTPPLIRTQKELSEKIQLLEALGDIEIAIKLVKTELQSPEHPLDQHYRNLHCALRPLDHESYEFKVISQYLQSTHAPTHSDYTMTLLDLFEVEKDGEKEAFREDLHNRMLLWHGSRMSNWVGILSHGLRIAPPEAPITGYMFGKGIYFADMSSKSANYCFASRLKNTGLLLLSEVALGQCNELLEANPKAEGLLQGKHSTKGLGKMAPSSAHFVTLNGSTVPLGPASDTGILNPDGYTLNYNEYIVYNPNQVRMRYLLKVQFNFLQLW
Description: as §1

Compound	pIC50 (MDA-MB-436 cells; Homo sapiens, MDA-MB-436)	also measured
CNC(=O)n1cc2c(n1)CN(C1CN(Cc3ccc4cc(C(F)(F)F)c(=O)[nH]c4c3)[C@H]1C)C2 (single isomer, unassigned) [Compound 36]	≥ 7.30	pIC50 (PARP1 [1]): ≥ 8.00
CNC(=O)n1cc2c(n1)CN(C1CN(Cc3ccc4c5c(c(=O)[nH]c4c3)CCC5)C1)C2 [Compound 15]	≥ 7.30	–
CCc1cc2ncc(CN3CC(N4Cc5cn(C(=O)NC)nc5C4)C3)cc2[nH]c1=O [Compound 10]	≥ 7.30	–
CNC(=O)n1cc2c(n1)CN(C1CN(Cc3ccc4cc(C(F)(F)F)c(=O)[nH]c4c3)[C@@H]1C)C2 (single isomer, unassigned) [Compound 35]	–	pIC50 (MDA-MB-436 cells): ≥ 7.30
O=C(NC1CC1)n1cc2c(n1)CN(C1CN(Cc3ccc4cc(C5CC5)c(=O)[nH]c4c3)C1)C2 [Compound 11]	≥ 7.30	–
[2H]C([2H])([2H])NC(=O)n1cc2c(n1)CN(C1CN(Cc3ccc4cc(CC)c(=O)[nH]c4c3)C1)C2 [Compound 14]	≥ 7.30	–
CCc1cc2ncc(CN3CC(N4Cc5nc(C(=O)NC)sc5C4)C3)cc2[nH]c1=O [Compound 7]	≥ 7.30	–
CCc1cc2c(F)cc(CN3CC(N4Cc5cn(C(=O)NC)nc5C4)C3)cc2[nH]c1=O [Compound 16]	≥ 7.30	–
CCc1cc2ccc(CN3C[C@@H](N4Cc5cn(C(=O)NC)nc5C4)[C@@H]3C)cc2[nH]c1=O [Compound 39]	≥ 7.30	–
CCc1cc2ccc(CN3CC(N4Cc5cn(C(=O)NC)nc5C4)C3)cc2[nH]c1=O [Compound 1]	≥ 7.30	–
CCc1nc2ccc(CN3C[C@H](N4Cc5cn(C(=O)NC)nc5C4)[C@@H]3C)cc2[nH]c1=O [Compound 45]	–	pIC50 (PARP1 [1]): ≥ 9.00; pIC50 (PARP1 [2]): 8.60; pIC50 (PARP2): < 6.30
CNC(=O)n1cc2c(n1)CN([C@@H]1CN(Cc3ccc4cc(C5CC5)c(=O)[nH]c4c3)[C@H]1C)C2 [Compound 43]	≥ 7.30	–
CCNC(=O)n1cc2c(n1)CN(C1CN(Cc3ccc4cc(CC)c(=O)[nH]c4c3)C1)C2 [Compound 13]	≥ 7.30	–
CNC(=O)n1cc2c(n1)CN(C1CN(Cc3ccc4cc(C(F)(F)F)c(=O)[nH]c4c3)C1)C2 [Compound 24]	–	pIC50 (PARP1 [1]): ≥ 9.00; pIC50 (PARP1 [2]): 8.61; pIC50 (PARP2): < 6.30
CNC(=O)n1cc2c(n1)CN(C1CN(Cc3ccc4cc(C5CC5)c(=O)[nH]c4c3)C1)C2 [Compound 2]	–	pIC50 (PARP1 [1]): ≥ 9.00
CNC(=O)n1cc2c(n1)CN(C1CN(Cc3ccc4cc(C5CC5)c(=O)[nH]c4c3)[C@@H]1C)C2 (single isomer, unassigned) [Compound 40]	–	pIC50 (MDA-MB-436 cells): ≥ 7.30
CCc1cc2ccc(CN3CC(N4Cc5cn(C(=O)NC(C)C)nc5C4)C3)cc2[nH]c1=O [Compound 9]	≥ 7.30	–
CCc1cc2ncc(CN3C[C@H](N4Cc5cn(C(=O)NC)nc5C4)[C@@H]3C)cc2[nH]c1=O [Compound 47]	–	pIC50 (MDA-MB-436 cells): ≥ 7.30
CCc1cc2ccc(CN3CC(N4Cc5cn(C(=O)NC6CC6)nc5C4)C3)cc2[nH]c1=O [Compound 4]	≥ 7.30	–
CCc1cc2ncc(CN3CC(N4Cc5cn(C(=O)NC6CC6)nc5C4)C3)cc2[nH]c1=O [Compound 5]	≥ 7.30	–
